# Assay results from PubChem BioAssay AID256 (DTP/NCI, 2004).
# Where “and” joins values, the source holds several entries; their conditions need not be identical. Equal values may be shown once. Inconclusive results and toxic doses are left out.
# System: CD2F1 mice, L1210 leukemia ip, survival T/C
# Experiment: NCI In Vivo Anticancer Drug Screen. Data for tumor model L1210 Leukemia (intraperitoneal) in CD2F1 (CDF1) mice
# Settings: higher = longer survival
# Method in brief: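 Each value reflects a quotient of treated over vehicle control outcomes in mice with a transplanted tumor.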
# [1] = endpoint: mean survival time, dose: 100.0 mg/kg/injection, schedule: Q04DX003 (ip), vehicle: saline with Tween-80
# [2] = endpoint: mean survival time, dose: 200.0 mg/kg/injection, schedule: Q04DX003 (ip), vehicle: saline with Tween-80
# [3] = endpoint: mean survival time, dose: 400.0 mg/kg/injection, schedule: Q04DX003 (ip), vehicle: saline with Tween-80
# [4] = endpoint: mean survival time, dose: 100.0 mg/kg/injection, schedule: Q01DX009 (ip), vehicle: saline with Tween-80
# [5] = endpoint: mean survival time, dose: 200.0 mg/kg/injection, schedule: Q01DX009 (ip), vehicle: saline with Tween-80
# [6] = endpoint: mean survival time, dose: 400.0 mg/kg/injection, schedule: Q01DX009 (ip), vehicle: saline with Tween-80
# [7] = endpoint: mean survival time, dose: 6.25 mg/kg/injection, schedule: Q01DX005 (ip), vehicle: water
# [8] = endpoint: mean survival time, dose: 12.5 mg/kg/injection, schedule: Q01DX005 (ip), vehicle: water
# [9] = endpoint: mean survival time, dose: 25.0 mg/kg/injection, schedule: Q01DX005 (ip), vehicle: water
# [10] = endpoint: mean survival time, dose: 50.0 mg/kg/injection, schedule: Q01DX005 (ip), vehicle: water
# [11] = endpoint: mean survival time, dose: 100.0 mg/kg/injection, schedule: Q01DX005 (ip), vehicle: water
# [12] = endpoint: mean survival time, dose: 100.0 mg/kg/injection, schedule: Q04DX002 (ip), vehicle: saline with Tween-80
# [13] = endpoint: mean survival time, dose: 200.0 mg/kg/injection, schedule: Q04DX002 (ip), vehicle: saline with Tween-80
# [14] = endpoint: mean survival time, dose: 400.0 mg/kg/injection, schedule: Q04DX002 (ip), vehicle: saline with Tween-80
# [15] = endpoint: median survival time, dose: 10.0 mg/kg/injection, schedule: Q04DX003 (ip), vehicle: water
# [16] = endpoint: median survival time, dose: 20.0 mg/kg/injection, schedule: Q04DX003 (ip), vehicle: water
# [17] = endpoint: median survival time, dose: 40.0 mg/kg/injection, schedule: Q04DX003 (ip), vehicle: water
# [18] = endpoint: median survival time, dose: 80.0 mg/kg/injection, schedule: Q04DX003 (ip), vehicle: water
# [19] = endpoint: mean survival time, dose: 100.0 mg/kg/injection, schedule: Q01DX009 (ip), vehicle: other
# [20] = endpoint: mean survival time, dose: 200.0 mg/kg/injection, schedule: Q01DX009 (ip), vehicle: other
structure (smiles),measurement,setting,value
O=[N+]([O-])c1ccc(/C=N/O)o1,T/C,"endpoint: mean survival time, dose: 12.5 mg/kg/injection, schedule: Q01DX001 (ip), vehicle: saline",93 % of control and 101 % of control
same,T/C,"endpoint: mean survival time, dose: 25.0 mg/kg/injection, schedule: Q01DX001 (ip), vehicle: saline",102 % of control
same,T/C,"endpoint: mean survival time, dose: 50.0 mg/kg/injection, schedule: Q01DX001 (ip), vehicle: saline",97 % of control and 102 % of control
same,T/C,"endpoint: mean survival time, dose: 100.0 mg/kg/injection, schedule: Q01DX001 (ip), vehicle: saline",100 % of control and 101 % of control and 102 % of control
same,T/C,"endpoint: mean survival time, dose: 150.0 mg/kg/injection, schedule: Q01DX001 (ip), vehicle: saline",100 % of control
Nc1nc(-c2ccccc2)c(Br)c(=O)[nH]1,T/C,[1],104 % of control
same,T/C,[2],96 % of control
same,T/C,[3],93 % of control
CC1=CC=CC2=NC(=O)CCN12,T/C,[4],104 % of control
same,T/C,[1],105 % of control
same,T/C,[5],106 % of control
same,T/C,[2],102 % of control
same,T/C,[6],103 % of control
same,T/C,[3],103 % of control
Cc1cccnc1F,T/C,"endpoint: mean survival time, dose: 12.5 mg/kg/injection, schedule: Q01DX009 (ip), vehicle: saline with Tween-80",95 % of control
same,T/C,"endpoint: mean survival time, dose: 25.0 mg/kg/injection, schedule: Q01DX009 (ip), vehicle: saline with Tween-80",97 % of control
same,T/C,"endpoint: mean survival time, dose: 50.0 mg/kg/injection, schedule: Q01DX009 (ip), vehicle: saline with Tween-80",100 % of control
same,T/C,[1],93 % of control
same,T/C,[2],96 % of control
same,T/C,[3],96 % of control
Clc1cccc(-n2ccnc2)c1,T/C,[4],109 % of control
same,T/C,[5],113 % of control
CC(=O)NC(CO)C1C(CO)OC(n2ccc(=O)[nH]c2=O)C1O (stereo unspecified),T/C,[7],101 % of control
same,T/C,[8],101 % of control
same,T/C,[9],98 % of control
same,T/C,[10],103 % of control
same,T/C,[11],96 % of control
O=C(O)C1C2C=CC3(O2)C(=O)N(Cc2ccccc2)C(=O)C13 (stereo unspecified),T/C,[12],95 % of control
same,T/C,[13],103 % of control
same,T/C,[14],98 % of control
Cc1cc(Cl)cc([N+](=O)[O-])c1,T/C,[1],92 % of control
same,T/C,[2],88 % of control
same,T/C,[3],87 % of control
Cc1nc(C(Cl)C2OC(CO)C(O)C2O)cc(=O)[nH]1 (stereo unspecified),T/C,"endpoint: median survival time, dose: 18.25 mg/kg/injection, schedule: Q01DX005 (ip), vehicle: saline",118 % of control
same,T/C,"endpoint: median survival time, dose: 36.5 mg/kg/injection, schedule: Q01DX005 (ip), vehicle: saline",100 % of control
same,T/C,"endpoint: median survival time, dose: 73.0 mg/kg/injection, schedule: Q01DX005 (ip), vehicle: saline",102 % of control
same,T/C,"endpoint: median survival time, dose: 146.0 mg/kg/injection, schedule: Q01DX005 (ip), vehicle: saline",100 % of control
CCCC[N-]CC(O)C[NH-].O=C(O)CC(=O)O.[Pt+2] (stereo unspecified),T/C,[15],105 % of control
same,T/C,[16],103 % of control
same,T/C,[17],105 % of control
same,T/C,"endpoint: median survival time, dose: 50.5 mg/kg/injection, schedule: Q04DX003 (ip), vehicle: water",103 % of control
same,T/C,[18],97 % of control
same,T/C,"endpoint: median survival time, dose: 101.0 mg/kg/injection, schedule: Q04DX003 (ip), vehicle: water",103 % of control
same,T/C,"endpoint: median survival time, dose: 202.0 mg/kg/injection, schedule: Q04DX003 (ip), vehicle: water",107 % of control
NC(=O)c1ccccc1CO,T/C,[12],102 % of control
same,T/C,[13],98 % of control
same,T/C,[14],98 % of control
C=C1C(=O)O[C@@H]2C[C@@]3(C)CC(=O)C=C(C)[C@@H]3C[C@H]12,T/C,"endpoint: mean survival time, dose: 100.0 mg/kg/injection, schedule: Q01DX001 (ip), vehicle: saline with Tween-80",101 % of control
same,T/C,[4],98 % of control
same,T/C,"endpoint: mean survival time, dose: 200.0 mg/kg/injection, schedule: Q01DX001 (ip), vehicle: saline with Tween-80",97 % of control
same,T/C,[5],98 % of control
same,T/C,"endpoint: mean survival time, dose: 400.0 mg/kg/injection, schedule: Q01DX001 (ip), vehicle: saline with Tween-80",101 % of control
same,T/C,[6],104 % of control
CCOC(=O)c1c[nH]n(C2OC(CO)C(O)C2O)c1=O (stereo unspecified),T/C,"endpoint: median survival time, dose: 45.5 mg/kg/injection, schedule: Q01DX005 (ip), vehicle: saline",96 % of control
same,T/C,"endpoint: median survival time, dose: 90.9 mg/kg/injection, schedule: Q01DX005 (ip), vehicle: saline",96 % of control
same,T/C,"endpoint: median survival time, dose: 181.9 mg/kg/injection, schedule: Q01DX005 (ip), vehicle: saline",98 % of control
CCOC(=O)Nc1ccc(F)cc1,T/C,[19],98 % of control
same,T/C,[20],98 % of control
same,T/C,"endpoint: mean survival time, dose: 400.0 mg/kg/injection, schedule: Q01DX009 (ip), vehicle: other",107 % of control
CC(=O)O.CC(=O)O.CC(=O)O.CC(=O)O.[Rh].[Rh],T/C,"endpoint: mean survival time, dose: 6.25 mg/kg/injection, schedule: Q01DX009 (ip), vehicle: saline",110 % of control
same,T/C,"endpoint: mean survival time, dose: 12.5 mg/kg/injection, schedule: Q01DX009 (ip), vehicle: saline",116 % of control
same,T/C,"endpoint: mean survival time, dose: 25.0 mg/kg/injection, schedule: Q01DX009 (ip), vehicle: saline",100 % of control
CN(C)N=Nc1ccccc1-c1nc(N)c2ccccc2n1,T/C,[7],103 % of control
same,T/C,[8],88 % of control
same,T/C,[9],109 % of control
same,T/C,[10],117 % of control
same,T/C,[11],98 % of control
Cn1c(=O)c2[n-]cnc2n(C)c1=O.[NH2-].[NH2-].[NH2-].[NH2-].[NH2-].[Ru+6],T/C,"endpoint: mean survival time, dose: 6.25 mg/kg/injection, schedule: Q04DX003 (ip), vehicle: water",106 % of control
same,T/C,"endpoint: mean survival time, dose: 12.5 mg/kg/injection, schedule: Q04DX003 (ip), vehicle: water",102 % of control
same,T/C,"endpoint: mean survival time, dose: 25.0 mg/kg/injection, schedule: Q04DX003 (ip), vehicle: water",104 % of control
same,T/C,"endpoint: mean survival time, dose: 50.0 mg/kg/injection, schedule: Q04DX003 (ip), vehicle: water",104 % of control
same,T/C,"endpoint: mean survival time, dose: 100.0 mg/kg/injection, schedule: Q04DX003 (ip), vehicle: water",104 % of control
O=C(O)/C=C/C(=O)Nc1ccc(Cl)cc1,T/C,[4],104 % of control
same,T/C,[5],89 % of control
Cc1cn(C2CC3OP(N(C)C)OCC3O2)c(=O)[nH]c1=O (stereo unspecified),T/C,[8],100 % of control
same,T/C,[9],101 % of control
same,T/C,[10],98 % of control
same,T/C,[11],105 % of control
same,T/C,"endpoint: mean survival time, dose: 200.0 mg/kg/injection, schedule: Q01DX005 (ip), vehicle: water",101 % of control
CCCCCCCCCCCCCC[N+](C)(C)Cc1cc(=O)c(O)co1,T/C,"endpoint: mean survival time, dose: 25.0 mg/kg/injection, schedule: Q04DX003 (ip), vehicle: Klucel (hydroxypropylcellulose) (HPC)",97 % of control
same,T/C,"endpoint: mean survival time, dose: 50.0 mg/kg/injection, schedule: Q04DX003 (ip), vehicle: Klucel (hydroxypropylcellulose) (HPC)",109 % of control
same,T/C,"endpoint: mean survival time, dose: 100.0 mg/kg/injection, schedule: Q04DX003 (ip), vehicle: Klucel (hydroxypropylcellulose) (HPC)",109 % of control
same,T/C,[1],87 % of control
C[Si](C)(CN)CN.O=C([O-])C1(C(=O)[O-])CCC1.[Pt+4],T/C,"endpoint: median survival time, dose: 2.5 mg/kg/injection, schedule: Q04DX003 (ip), vehicle: water",110 % of control
same,T/C,"endpoint: median survival time, dose: 5.0 mg/kg/injection, schedule: Q04DX003 (ip), vehicle: water",107 % of control
same,T/C,[15],122 % of control
same,T/C,[16],151 % of control
same,T/C,"endpoint: median survival time, dose: 25.0 mg/kg/injection, schedule: Q04DX003 (ip), vehicle: water",151 % of control
same,T/C,[17],164 % of control and 177 % of control
same,T/C,"endpoint: median survival time, dose: 50.0 mg/kg/injection, schedule: Q04DX003 (ip), vehicle: water",175 % of control
same,T/C,"endpoint: median survival time, dose: 60.0 mg/kg/injection, schedule: Q04DX003 (ip), vehicle: water",181 % of control
same,T/C,[18],244 % of control
same,T/C,"endpoint: median survival time, dose: 100.0 mg/kg/injection, schedule: Q04DX003 (ip), vehicle: water",175 % of control
N#[N+]c1c([O-])[nH]c2ccccc12,T/C,"endpoint: median survival time, dose: 50.0 mg/kg/injection, schedule: Q04DX002 (ip), vehicle: saline with Tween-80",110 % of control
same,T/C,"endpoint: median survival time, dose: 100.0 mg/kg/injection, schedule: Q04DX002 (ip), vehicle: saline with Tween-80",110 % of control
same,T/C,"endpoint: median survival time, dose: 200.0 mg/kg/injection, schedule: Q04DX002 (ip), vehicle: saline with Tween-80",120 % of control
CC(=O)OCC1OC(OC(C)=O)C(NC(=O)Nc2ccccc2)C(OC(C)=O)C1OC(C)=O (stereo unspecified),T/C,"endpoint: mean survival time, dose: 12.5 mg/kg/injection, schedule: Q01DX009 (ip), vehicle: other",96 % of control
same,T/C,"endpoint: mean survival time, dose: 25.0 mg/kg/injection, schedule: Q01DX009 (ip), vehicle: other",94 % of control
same,T/C,"endpoint: mean survival time, dose: 50.0 mg/kg/injection, schedule: Q01DX009 (ip), vehicle: other",96 % of control
same,T/C,[19],93 % of control
same,T/C,[20],94 % of control
